Source: paper PMC6009898 (Journal of Enzyme Inhibition and Medicinal Chemistry, 2017)
Values joined by “and” are separate entries in the source; they are usually repeats but may differ in a detail not shown here. Equal entries are not always repeated.

Experiments:
[1] = molecular target: T1, AChE (from electric eel) (Electrophorus electricus, UniProt O42275); experiment: biochemical; settings: means ± SD of three experiments; read-out: IC50 eeAChE
T1 construct: Acetylcholinesterase (E.C. 3.1.1.7) from electric eel and human erythrocytes; purchased Sigma-Aldrich (St. Louis, MO); host or cells: electric eel (natural source)
T1 sequence (O42275 24-633): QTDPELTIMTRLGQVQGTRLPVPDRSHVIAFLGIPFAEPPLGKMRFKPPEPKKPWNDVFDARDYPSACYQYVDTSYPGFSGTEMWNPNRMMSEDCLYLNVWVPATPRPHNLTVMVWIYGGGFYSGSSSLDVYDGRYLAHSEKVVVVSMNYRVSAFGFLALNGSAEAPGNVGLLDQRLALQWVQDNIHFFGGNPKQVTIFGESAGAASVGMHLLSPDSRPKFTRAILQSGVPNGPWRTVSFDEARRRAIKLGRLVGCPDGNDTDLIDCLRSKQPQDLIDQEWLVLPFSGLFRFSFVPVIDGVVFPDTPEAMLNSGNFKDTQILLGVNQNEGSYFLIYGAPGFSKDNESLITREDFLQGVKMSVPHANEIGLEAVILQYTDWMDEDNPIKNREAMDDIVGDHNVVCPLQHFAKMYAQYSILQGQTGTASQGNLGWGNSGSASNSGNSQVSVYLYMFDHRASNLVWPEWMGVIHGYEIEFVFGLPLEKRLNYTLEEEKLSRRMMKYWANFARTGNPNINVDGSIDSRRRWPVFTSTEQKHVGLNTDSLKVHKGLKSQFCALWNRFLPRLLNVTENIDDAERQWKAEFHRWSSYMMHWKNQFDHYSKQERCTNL

[2] = molecular target: T2, BuChE (from equine serum) (Equus caballus, UniProt P81908); experiment: biochemical; assay type: biochemical; settings: IC50 eqBuChE, means ± SD of three experiments
T2 construct: butyrylcholinesterase (BuChE, E.C. 3.1.1.8) from equine serum and human serum; purchased Sigma-Aldrich (St. Louis, MO); host or cells: equine serum
T2 sequence (P81908 whole entry): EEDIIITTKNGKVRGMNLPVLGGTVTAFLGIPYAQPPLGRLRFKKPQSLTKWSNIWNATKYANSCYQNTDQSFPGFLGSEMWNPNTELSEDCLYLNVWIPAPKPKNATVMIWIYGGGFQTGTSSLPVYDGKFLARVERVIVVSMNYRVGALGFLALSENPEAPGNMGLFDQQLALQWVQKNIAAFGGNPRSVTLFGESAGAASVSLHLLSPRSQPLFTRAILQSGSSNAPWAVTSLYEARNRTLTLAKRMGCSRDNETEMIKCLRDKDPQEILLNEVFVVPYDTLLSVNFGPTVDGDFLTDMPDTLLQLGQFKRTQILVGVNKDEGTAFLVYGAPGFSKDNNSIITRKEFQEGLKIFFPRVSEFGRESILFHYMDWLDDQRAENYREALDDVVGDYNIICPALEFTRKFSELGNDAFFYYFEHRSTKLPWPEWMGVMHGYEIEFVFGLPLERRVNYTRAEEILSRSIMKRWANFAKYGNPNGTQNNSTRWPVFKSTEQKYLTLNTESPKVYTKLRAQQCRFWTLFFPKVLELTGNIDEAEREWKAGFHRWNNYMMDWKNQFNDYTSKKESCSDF

[3] = molecular target: T3, human AChE (Homo sapiens, UniProt P22303); experiment: biochemical; settings: means ± SD of three experiments; read-out: IC50 hAChE
T3 construct: Acetylcholinesterase (E.C. 3.1.1.7) from electric eel and human erythrocytes; purchased Sigma-Aldrich (St. Louis, MO); host or cells: human erythrocytes
T3 sequence (P22303 other isoform, or with tags, fused parts or gaps): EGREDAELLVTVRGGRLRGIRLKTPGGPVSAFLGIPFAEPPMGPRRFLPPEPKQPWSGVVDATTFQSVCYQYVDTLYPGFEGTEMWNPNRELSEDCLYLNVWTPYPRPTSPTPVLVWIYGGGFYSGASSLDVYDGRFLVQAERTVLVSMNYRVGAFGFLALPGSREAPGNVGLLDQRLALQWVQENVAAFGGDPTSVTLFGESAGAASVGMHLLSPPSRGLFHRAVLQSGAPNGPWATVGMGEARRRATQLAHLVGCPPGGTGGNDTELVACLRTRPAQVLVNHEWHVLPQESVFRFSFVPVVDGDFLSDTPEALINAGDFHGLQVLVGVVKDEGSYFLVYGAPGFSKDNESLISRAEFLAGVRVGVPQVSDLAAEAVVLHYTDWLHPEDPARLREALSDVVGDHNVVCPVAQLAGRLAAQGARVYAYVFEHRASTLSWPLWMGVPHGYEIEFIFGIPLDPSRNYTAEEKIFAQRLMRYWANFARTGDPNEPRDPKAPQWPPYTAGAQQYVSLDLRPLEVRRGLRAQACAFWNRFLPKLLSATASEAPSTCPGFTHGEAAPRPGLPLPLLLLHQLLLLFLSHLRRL

[4] = molecular target: T4, Aβ (1–42) (Homo sapiens, UniProt P05067); experiment: Inhibition of Cu^2+-induced Aβ (1–42) aggregation (ThT assay); assay type: biochemical; settings: read-out: Inhibition of Cu^2+-induced Aβ aggregation
T4 sequence (P05067 672-713): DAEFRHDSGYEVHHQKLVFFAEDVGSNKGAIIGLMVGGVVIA
Experimental: The mixture of the peptide (10 μL, 25 μM, final concentration) with or without copper (10 μL, 25 μM, final concentration) and the test compound (10 μL, 50 μM, final concentration) were incubated at 37 °C for 24 h. The 20 μL of the sample was diluted to a final volume of 200 μL with […] glycine–NaOH buffer (pH 8.0) containing ThT (5 μM). The detection method was the same as that of self-induced Aβ aggregation experiment.

[5] = tested on: PC12 cells; experiment: Cytotoxicity in PC12 cells (MTT assay); assay type: cell-based; settings: 3–50 μM, 24 h
Experimental: The toxicity effect of the tested compounds on the rat pheochromocytoma (PC12) cells was examined according to previously reported methods. PC 12 cells was obtained from the Cell Bank of the Chinese Academy of Sciences (Shanghai, China) and routinely grown at 37 °C in a humidified incubator with 5% CO2 in Dulbecco’s modified Eagle’s medium (DMEM) supplemented with 10% bovine calf serum, 100 units per mL penicillin, and 100 units per mL of streptomycin. Cells were sub-cultured in 96-well plates at a seeding density of 5000 cells per well and allowed to adhere and grow. When cells reached the required confluence, they were placed into serum-free medium and treated with compound 5l. Twenty-four hours later the survival of cells was determined by MTT assay. Briefly, after incubation with 20 μL of MTT at 37 °C for 4 h, living cells containing MTT formazan crystals were solubilized in 200 μL DMSO. The absorbance of each well was measured using a microculture plate reader with a test wavelength of 570 nm and a reference wavelength of 630 nm. Results are expressed as the mean ± SD of three independent experiments.

[6] = tested on: PC12 cells; experiment: Neuroprotection against Aβ (1–42)-induced toxicity in PC12 cells (MTT assay); assay type: cell-based; settings: Rattus norvegicus, PC-12, Aβ (1–42) 25 μM, 24 h, Aβ alone 44.2%, read-out: Cell viability (% of control) with Aβ (1–42)
Experimental: PC 12 cells were grown in RPMI-1640 medium containing 10% (v/v) foetal bovine serum, 100 U penicillin/mL and […] streptomycin/mL under 5% CO2 at 37 °C. The culture media were changed every other day. After pretreatment with different concentrations of test compound (0, 6, 12.5, 25, 50 μM) for 2 h, PC 12 cells were incubated with 25 μM of Aβ (1–42) for 24 h. The cell viability was evaluated using MTT assay. Briefly, the cells were treated with 10 μL MTT (5 mg/mL in PBS) for 4 h at 37 °C. Then, 200 μL of DMSO was added to dissolve the dark blue formazan crystals formed in intact cells, and the absorbance at 570 nm was detected by a microplate reader. PC12 cells were cultured without test compound or Aβ (1–42) as control group and the results were expressed by percentage of control.

[7] = in vitro; set-up: Papp at 16 h: dose or concentration left out as unconfirmed; settings: for Papp at 16 h: PAMPA
Experimental: Commercial drugs were purchased from Sigma (St. Louis, MO) and Alfa Aesar (Haverhill, MA). The porcine brain lipid (PBL) was obtained from Avanti Polar Lipids (Alabaster, AL). The donor microplate (PVDF membrane, pore size […]) and the acceptor microplate were both from Millipore (Darmstadt, Germany). The 96-well UV plate (COSTAR^@) was from Corning Incorporated (Harrodsburg, KY). The acceptor 96-well microplate was filled with 300 μL of PBS/EtOH (7:3), and the filter membrane was impregnated with 4 μL of PBL in dodecane (20 mg/mL). […] The […] was carefully placed on the donor plate to form a sandwich, which was left undisturbed for 16 h at 25 °C. After incubation, the donor plate was carefully removed and the concentration of compound in the acceptor wells was determined using an UV plate reader (Flexstation^@ 3). Every sample was analyzed at five wavelengths, in four wells, in at least three independent runs, and the results are given as the mean ± SD. In each experiment, nine quality control standards of known BBB permeability were included to validate the analysis set.

[8] = molecular target: brain AChE (Mus musculus, UniProt P21836); settings: mice, 10 μmol/kg i.p., sacrificed 10 min after administration
Sequence of brain AChE (P21836 32-614): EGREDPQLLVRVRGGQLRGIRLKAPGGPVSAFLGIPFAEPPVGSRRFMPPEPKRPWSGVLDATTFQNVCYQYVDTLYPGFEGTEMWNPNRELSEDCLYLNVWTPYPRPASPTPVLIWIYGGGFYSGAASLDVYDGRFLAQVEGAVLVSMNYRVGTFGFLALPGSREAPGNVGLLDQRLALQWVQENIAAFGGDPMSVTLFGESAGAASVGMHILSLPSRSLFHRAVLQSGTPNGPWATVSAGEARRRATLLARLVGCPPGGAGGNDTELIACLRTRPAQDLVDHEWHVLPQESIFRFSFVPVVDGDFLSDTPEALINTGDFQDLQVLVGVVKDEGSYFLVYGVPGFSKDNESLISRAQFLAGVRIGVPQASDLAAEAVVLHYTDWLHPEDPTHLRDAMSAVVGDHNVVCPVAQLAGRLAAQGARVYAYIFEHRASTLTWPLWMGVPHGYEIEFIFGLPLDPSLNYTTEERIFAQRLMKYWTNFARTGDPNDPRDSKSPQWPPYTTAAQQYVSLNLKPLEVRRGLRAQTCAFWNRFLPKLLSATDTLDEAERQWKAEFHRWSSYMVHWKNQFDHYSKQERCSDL

[9] = molecular target: EeAChE (Electrophorus electricus, UniProt O42275); experiment: Kinetic analysis of AChE inhibition (Lineweaver–Burk plots); settings: 5l at 30.0, 15.0 and 7.5 nM
Sequence of EeAChE (O42275 24-633): as the sequence (O42275 24-633) above

[10] = molecular target: T4, Aβ (1–42); experiment: Inhibition of Aβ (1–42) self-induced aggregation (Thioflavin T assay); settings: read-out: Aβ (1–42) aggregation inhibition (%)
[11] = PAMPA-BBB literature value; cited from earlier work

Row | Compound | IC50 [1] | IC50 [2] | IC50 [3] | inhibition at 50 µM [4] | Effect on cell viability (toxicity) [5] | viability at 6 µM ([6]; 6 μM compound) | viability at 12.5 µM ([6]; 12.5 μM compound) | viability at 25 µM ([6]; 25 μM compound) | viability at 50 µM ([6]; 50 μM compound) | Papp at 16 h [7] | BBB permeation prediction class ([7]; PAMPA-BBB) | Inhibition (%) of brain AChE activity versus untreated controls [8] | ABTS assay (trolox equiv) | Type of AChE inhibition [9] | inhibition at 20 µM [10] | Permeability Pe, Bibl [11]
1 | COc1ccc(/C=C/C(=O)Nc2cc[n+](Cc3ccc(F)cc3)cc2)cc1OC.[Br-] [Compound 5l, (E)-4-(3-(3,4-dimethoxyphenyl)acrylamido)-1-(4-fluorobenzyl) pyridin-1-ium bromide] | 12.1 ± 1.8 nM | 2500 nM and 2600 nM | 8.6 ± 0.9 nM | 68.6% | did not significantly affect cell viability | 47.6 ± 4.2% | 57.5 ± 1.4% | 63.2 ± 3.5% | 66.6 ± 2.5% | 2.89 ± 0.37 ×10⁻⁶ cm/s | CNS+ | 53.9 ± 2.9% | N (N means <0.05) | mixed-type inhibitor | 64.7 ± 1.6% | –
2 | NCCc1ccc(O)c(O)c1 [Dopamine, reference compound] | – | – | – | – | – | – | – | – | – | 0.17 ×10⁻⁶ cm/s | – | – | – | – | – | 0.2 ×10⁻⁶ cm/s
